In patent US12037329B2, “SphK inhibitors and methods of making and using same” (Washington University, priority 2021, dated 2024):
Entries after “also recorded” stand apart in the source; their conditions may differ. Counter-ions that a name gives are not always drawn. Like-named read-outs stand apart in the source and are kept apart here.

Key:
[1] = target: T1, SphK2 (Homo sapiens (Human), UniProt Q9NRA0); details: SphK2-selective inhibitors; cited from earlier work
[2] = target: T1, SphK2; assay: ADP-Glo kinase assay, SphK2; type: biochemical; details: for IC50: ADP-Glo assay, 50 μM ATP, recombinant human SphK2; for selectivity/specificity for SphK2 over SphK1: 125 μM of each compound, SphK2 versus SphK1, FIG. 5
Excerpt: The bioluminescence-based kinase assay such as ADP-Glo assay measures ADP formed from a kinase reaction with a luciferase. Upon the completion of a kinase reaction, the remaining ATP is depleted, the ADP produced in the kinase reaction is then converted to ATP and the detection is based on a sensitive and robust bioluminescence reaction. It has a broad linear range of ATP concentrations and high dynamic range. To determine the inhibition activity of the compounds, the ADP-Glo kinase assay was used which was able to detect down to 20% of 1 μM ATP to ADP conversion (FIG. 4A).
ADP-Glo (Promega, Madison, WI) kinase assay were used to evaluate the kinase activity of SphK. ATP to ADP standard curves were prepared in the kinase buffer to assess the linearity of the assay in order to calculate the amount of ADP produced in each tested conditions (FIG. 4A). SB10 (tenfold signal to background ra-tio) of SphK was also determined to evaluate the enzyme perfor-mance and to optimize the kinase reaction condition in this system. In brief, for SphK2, […], 100 μM of D-erythro-Sphingosine (Tocris Bioscience, Minneapolis, MN), and 2 ng of recombinant human SphK2 (R&D Systems, Minneapolis, MN) with desired concentration of each synthesized compound were used for SphK2 kinase reaction. For SphK1, exact same reaction condition was used except 0.5 ng of recombinant human SphK1 was used.
To evaluate the SphK selectivity of each compound, 125 μM of each compound in reaction buffer ([…] Tris, pH 8.0, […] MgCl2, and 0.1 mg/mL BSA) with 5% DMSO was incubated with either SphK1 or SphK2 in a 384-well solid white low volume microplate (Corning, Corning, NY), and the reaction was initiated by adding mixture of ATP and D-erythro-Sphingosine to a total volume of 5 μL, after 1 h incubation at room temperature with gentle shaking, the reaction was stopped by adding equal volume of ADP-Glo buffer and incubated for another hour to remove excess amount of ATP from the reaction. Afterwards, 10 μL of kinase detection reagent was added, mixed, and incubated for 30 min under dark. Luminescence output was recorded using a SpectraMax M5 Multi-Mode Microplate Readers (Molecular Devices, San Jose, CA), an integration time of 500 ms was used. All reactions were performed in triplicate. The enzyme activity of SphK in the presence of each compound was normalized to the no treatment control. […] The final data was calculated using Prism 7.0 (GraphPad Software, La Jolla, CA), IC50 was determined using Nonlinear regression (curve fit) four parameters dose-response calculations.

[3] = system: U-251 MG human glioblastoma cells; assay: U-251 MG cell viability, Hoechst 33258/propidium iodide imaging, 125 μM, 24 h; type: cell-based
Procedure: Cells were seeded into a 96-well microplate (Corning, Corning, NY) at 3000 cells/well and incubated for approximately 16 h. […] Cells were imaged using MetaXpress High-Content Image Acquisition and Analysis Software 6.1 and ImageXpress Micro XLS Wide-field High-Content Analysis System (Molecular Devices, San Jose, CA). Images were taken with a Nikon 10 CFI Plan Fluor objective. For all samples, triplicated measurements were performed.

[4] = system: U-251 MG cells; assay: CellTiter96 MTS cell viability dose response, U-251 MG; type: cell-based, human; details: read-out: IC50 (cell viability)
Procedure: The anti-tumor activity of these inhibitors was further examined at different doses.
Cell viability was determined using CellTiter96 MTS Assay and compared to DMSO treated control cells. IC50 values were calculated by non-linear regression analysis of the dose-response curve using GraphPad Prism version 8.00 for Windows (GraphPad Software).

T1 sequence (Q9NRA0 whole entry): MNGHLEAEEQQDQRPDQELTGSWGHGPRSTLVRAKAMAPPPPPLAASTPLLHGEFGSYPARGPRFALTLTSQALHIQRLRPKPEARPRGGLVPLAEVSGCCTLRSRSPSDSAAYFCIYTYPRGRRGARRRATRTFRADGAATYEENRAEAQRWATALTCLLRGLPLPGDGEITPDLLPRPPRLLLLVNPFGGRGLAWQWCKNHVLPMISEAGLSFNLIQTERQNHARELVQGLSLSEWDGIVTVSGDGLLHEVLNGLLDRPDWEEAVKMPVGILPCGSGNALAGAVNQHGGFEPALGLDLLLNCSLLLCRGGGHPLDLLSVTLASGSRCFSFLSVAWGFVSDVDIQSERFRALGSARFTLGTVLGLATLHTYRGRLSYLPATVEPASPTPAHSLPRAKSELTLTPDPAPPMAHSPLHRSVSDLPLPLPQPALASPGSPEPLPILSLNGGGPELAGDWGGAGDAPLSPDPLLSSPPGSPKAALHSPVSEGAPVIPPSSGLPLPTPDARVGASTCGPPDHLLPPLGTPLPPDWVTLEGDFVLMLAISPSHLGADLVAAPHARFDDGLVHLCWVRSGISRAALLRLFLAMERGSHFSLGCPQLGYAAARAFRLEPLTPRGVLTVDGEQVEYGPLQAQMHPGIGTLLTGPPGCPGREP

N=C(N)N1CCC[C@H]1Cc1nc(-c2ccc(Nc3nc(-c4cccc(C(F)(F)F)c4)cs3)cc2)no1 [Compound 13, reference compound]
Ki [1]: 90 nM | IC50 [2]: 280 nM

Cl.N=C(N)N1CCC[C@H]1Cc1nc(-c2ccc(Cn3cc(-c4ccccc4)nn3)cc2)no1 [Compound 21a, (S)-2-((3-(4-((4-Phenyl-1H-1,2,3-triazol-1-yl)methyl)phenyl)-1,2,4-oxadiazol-5yl)methyl)pyrrolidine-1-carboximidamide hydrochloride]
antitumor activity / reduction of U-251 MG cell viability (in words) ([3]; hydrochloride): high anti-tumor activity; also recorded: significant reduction | IC50 ([4]; Homo sapiens, U-251, 72 h): 17000 nM | IC50 [2]: 396 nM

Cl.N=C(N)N1CCC[C@H]1Cc1nc(-c2ccc(Cn3cc(-c4ccccn4)nn3)cc2)no1 [Compound 21c, (S)-2-((3-(4-((4-(Pyridin-2-yl)-1H-1,2,3-triazol-1-yl)methyl)phenyl)-1,2,4-oxadiazol-5-yl)methyl)pyrrolidine-1-carboximidamide hydrochloride]
selectivity/specificity for SphK2 over SphK1 ([2]; hydrochloride): high selectivity; also recorded: highest specificity | IC50 [2]: 452 nM

CCCCc1cn(Cc2ccc(-c3noc(C[C@@H]4CCCN4C(=N)N)n3)cc2)nn1.Cl [Compound 21d, (S)-2-((3-(4-((4-Butyl-1H-1,2,3-triazol-1-yl)methyl)phenyl)-1,2,4-oxadiazol-5-yl)methyl)pyrrolidine-1-carboximidamide hydrochloride]
SphK2 inhibitory activity (in words) [2]: no inhibitory activity | selectivity/specificity for SphK2 over SphK1 ([2]; hydrochloride): lowest specificity; also recorded: no selectivity

COc1ccc(-c2cn(Cc3ccc(-c4noc(C[C@@H]5CCCN5C(=N)N)n4)cc3)nn2)cc1.Cl [Compound 21e, (S)-2-((3-(4-((4-(4-Methoxyphenyl)-1H-1,2,3-triazol-1-yl)methyl)phenyl)-1,2,4-oxadiazol-5-yl)methyl)pyrrolidine-1-carboximidamide hydrochloride]
antitumor activity / reduction of U-251 MG cell viability (in words) [3]: comparable reduction | selectivity/specificity for SphK2 over SphK1 ([2]; hydrochloride): high selectivity; also recorded: highest specificity | IC50 [2]: 640 nM

Cl.N=C(N)N1CCC[C@H]1Cc1nc(-c2ccc(Cn3cc(C4CC4)nn3)cc2)no1 [Compound 21f, (S)-2-((3-(4-((4-Cyclopropyl-1H-1,2,3-triazol-1-yl)methyl)phenyl)-1,2,4-oxadiazol-5-yl)methyl)pyrrolidine-1-carboximidamide hydrochloride]
SphK2 inhibitory activity (in words) [2]: no inhibitory activity | selectivity/specificity for SphK2 over SphK1 ([2]; hydrochloride): lowest specificity; also recorded: no selectivity

Cl.Cn1cc(-c2cn(Cc3ccc(-c4noc(C[C@@H]5CCCN5C(=N)N)n4)cc3)nn2)cn1 [Compound 21g, (S)-2-((3-(4-((4-(1-Methyl-1H-pyrazol-4-yl)-1H-1,2,3-triazol-1-yl)methyl)phenyl)-1,2,4-oxadiazol-5-yl)methyl)pyrrolidine-1-carboximidamide hydrochloride]
selectivity/specificity for SphK2 over SphK1 ([2]; hydrochloride): high selectivity; also recorded: highest specificity | IC50 [2]: 234 nM

Cl.N=C(N)N1CCC[C@H]1c1nc(-c2ccc(Cn3cc(-c4ccc(C(F)(F)F)cc4)nn3)cc2)no1 [Compound 25b, (S)-2-((3-(4-((4-(4-(Trifluoromethyl)phenyl)-1H-1,2,3-triazol-1-yl)methyl)phenyl)-1,2,4-oxadiazol-5-yl)pyrrolidine-1-carboximidamide hydrochloride]
IC50 ([4]; U-251 MG cells, 72 h, MTS): 12300 nM | IC50 [2]: 359 nM

Cl.N=C(N)N1CCC[C@H]1c1nc(-c2ccc(Cn3cc(-c4ccc(C(F)(F)F)cc4)nn3)cc2)no1 [Compound 25b]
antitumor activity / reduction of U-251 MG cell viability (in words) ([3]; hydrochloride): high anti-tumor activity; also recorded: higher antitumor activity; also recorded: tremendously decreased; also recorded: significant reduction

Cl.N=C(N)N1CCC[C@H]1c1nc(-c2ccc(Cn3cc(-c4ccccn4)nn3)cc2)no1 [Compound 25c, (S)-2-(3-(4-((4-(Pyridin-2-yl)-1H-1,2,3-triazol-1-yl)methyl)phenyl)-1,2,4-oxadiazol-5-yl)pyrrolidine-1-carboximidamide hydrochloride]
selectivity/specificity for SphK2 over SphK1 [2]: lowest specificity | IC50 ([2]; hydrochloride): 900 nM

COc1ccc(-c2cn(Cc3ccc(-c4noc([C@@H]5CCCN5C(=N)N)n4)cc3)nn2)cc1.Cl [Compound 25d, (S)-2-((3-(4-((4-(4-Methoxyphenyl)-1H-1,2,3-triazol-1-yl)methyl)phenyl)-1,2,4-oxadiazol-5-yl)-pyrrolidine-1-carboximidamide hydrochloride]
IC50 ([4]; U-251 MG cells, 72 h, MTS): 78200 nM | IC50 [2]: 266 nM

COc1ccc(-c2cn(Cc3ccc(-c4noc([C@@H]5CCCN5C(=N)N)n4)cc3)nn2)cc1.Cl [Compound 25d]
antitumor activity / reduction of U-251 MG cell viability (in words) [3]: comparable reduction

N=C(N)N1CCC[C@H]1c1nc(-c2ccc(Cn3cc(-c4cccs4)nn3)cc2)no1 [Compound 25e, (S)-2-((3-(4-((4-(Thiophen-2-yl)-1H-1,2,3-triazol-1-yl)methyl)phenyl)-1,2,4-oxadiazol-5-yl)-pyrrolidine-1-carboximidamide hydrochloride]
IC50 [2]: 687 nM

CCCCc1cn(Cc2ccc(-c3noc([C@@H]4CCCN4C(=N)N)n3)cc2)nn1.Cl [Compound 25f, (S)-2-((3-(4-((4-Butyl-1H-1,2,3-triazol-1-yl)methyl)phenyl)-1,2,4-oxadiazol-5-yl)pyrrolidine-1-carboximidamide hydrochloride]
IC50 [2]: 254 nM

CCCCc1cn(Cc2ccc(-c3noc([C@@H]4CCCN4C(=N)N)n3)cc2)nn1.Cl [Compound 25f]
selectivity/specificity for SphK2 over SphK1 [2]: high selective

N=C(N)N1CCC[C@H]1c1nc(-c2ccc(Cn3cc(-c4ccc(F)cc4)nn3)cc2)no1 [Compound 25g, (S)-2-((3-(4-((4-(4-Fluorophenyl)-1H-1,2,3-triazol-1-yl)methyl)phenyl)-1,2,4-oxadiazol-5-yl)-pyrrolidine-1-carboximidamide hydrochloride]
IC50 [2]: 391 nM

Cl.N=C(N)N1CCC[C@H]1c1nc(-c2ccc(Cn3cc(C4CC4)nn3)cc2)no1 [Compound 25h, (S)-2-((3-(4-((4-Cyclopropyl-1H-1,2,3-triazol-1-yl)methyl)phenyl)-1,2,4-oxadiazol-5-yl)pyrrolidine-1-carboximidamide hydrochloride]
IC50 [2]: 248 nM

Cl.N=C(N)N1CCC[C@H]1c1nc(-c2ccc(Cn3cc(C4CC4)nn3)cc2)no1 [Compound 25h]
selectivity/specificity for SphK2 over SphK1 [2]: high selective

Cl.N=C(N)C1(c2nc(-c3ccc(Cn4cc(-c5ccccc5)nn4)cc3)no2)CC1 [Compound 29a, 1-(3-(4-((4-Phenyl-1H-1,2,3-triazol-1-yl)methyl)phenyl)-1,2,4-oxadiazol-5-yl)cyclopropanecarboximidamide hydrochloride]
selectivity/specificity for SphK2 over SphK1 [2]: highly selective | IC50 [2]: 261 nM

Cn1cc(-c2cn(Cc3ccc(-c4noc(C5(C(=N)N)CC5)n4)cc3)nn2)cn1 [Compound 29b, hydrochloride]
selectivity/specificity for SphK2 over SphK1 [2]: highly selective

Cn1nccc1-c1cn(Cc2ccc(-c3noc(C4(C(=N)N)CC4)n3)cc2)nn1 [Compound 29b, hydrochloride]
IC50 [2]: 269 nM

N=C(N)C1(c2nc(-c3ccc(Cn4cc(C5CC5)nn4)cc3)no2)CC1 [Compound 29c, 1-(3-(4-((4-Cyclopropyl-1H-1,2,3-triazol-1-yl)methyl)phenyl)-1,2,4-oxadiazol-5-yl)cyclopropanecarboximidamide hydrochloride]
IC50 [2]: 717 nM

ABC294640 [Compound 7, reference compound]
reduction of viability of U-251 MG cells ([3]; versus no treatment control): approximately 50%
